Data on one molecule can be found in patent US20230338529A1, “COMPOSITIONS FOR ALTERING A MICROGLIAL CELL, AND METHODS OF USE THEREFORE” (The Children's Medical Center Corporation, priority 2020, published 2023).

The subject of one experiment is microglia. Briefly: Microglia depletion in vivo with PLX3397, P2Y12-stained spinal cord. Also noted: species or system mice. As to conditions: 7 days after PLX3397 treatment; P2Y12 staining. On the procedure:
Mice were given a lethal dose of anesthesia and transcardially perfused with PBS followed by 4% paraformaldehyde (PFA). PFA fixed tissues were incubated in 30% sucrose in PBS for 3 days at 4° C., embedded in OCT (Tissue-Tek), frozen in a dry ice/ethanol bath, and stored at -80° C. Transverse and sagittal sections were cut on a cryostat at 30 µm thick and stored at -20° C. until processed. Before staining, sections were warmed to room temperature and dried on a 37° C. slide warmer for 2 h. Sections then were treated with a blocking solution containing 10% normal donkey serum and 0.5% Triton-100 for 2 hours at room temperature. The primary antibodies used were: rabbit/goat anti-5-HT [Immunostar (20080/20079), 1: 5,000]; rabbit anti-GFAP [DAKO (Z0334), 1:600]; rat anti-GFAP [Thermo Fisher (13-0300), 1:600]; rabbit anti-P2Y12 [AnaSpec (AS-55043A), 1:200]; rat anti-CD68 [Bio-Rad (MCA1957), 1:600]; rabbit anti-Fibronectin [Millipore (AB2033), 1:200]; rabbit anti- Collagen I [Abcam (ab21286), 1:200]; chicken anti-GFP [Abcam (ab13970), 1:400]; goat anti-SPP1 [R&D (AF808), 1:400]; mouse anti-Ly6G/Ly6C [R&D (MAB1037), 1:200]; mouse anti-CSPG [Sigma-Aldrich (C8035), 1:200]; rabbit anti-CSPG [Sigma-Aldrich (L9393), 1:500]; rabbit anti-RFP [Abcam (ab34771), 1:400]. […]

In experiment [1] the test system is neonatal spinal cord lesion after P2 crush. Briefly: P2 spinal cord crush with microglia depletion: bridge formation, wound healing and axon regrowth by immunostaining. The format is in vivo, mice. On the procedure: Newborn pups (P2/P7) were anesthetized by isoflurane. A laminectomy was performed at T10 until the spinal cord was exposed completely from side-to-side. The spinal cord was then fully crushed for 2 seconds with forceps with a width of 0.1 mm in the last 5 mm of tips. The muscles and skin were sutured in layers with 6-0 sutures. EMLA topical cream was used for post-surgery analgesia. Animals then were warmed up and kept in a box containing the bedding from the original cage for at least 30 minutes. After that, the closed surgical site was rubbed with the feces from the mom using a Q-tip and then returned to the mom. Feeding was closely monitored in the first week after surgery. Nutra-Gel diets (Bio-Serv) or breeder chow diets were provided to avoid cannibalism. […] In case of bladder dysfunction, bladder emptying was performed once a day until bladder function was restored.
Mice were given a lethal dose of anesthesia and transcardially perfused with PBS followed by 4% paraformaldehyde (PFA). PFA fixed tissues were incubated in 30% sucrose in PBS for 3 days at 4° C., embedded in OCT (Tissue-Tek), frozen in a dry ice/ethanol bath, and stored at -80° C. Transverse and sagittal sections were cut on a cryostat at 30 µm thick and stored at -20° C. until processed. Before staining, sections were warmed to room temperature and dried on a 37° C. slide warmer for 2 h. Sections then were treated with a blocking solution containing 10% normal donkey serum and 0.5% Triton-100 for 2 hours at room temperature. The primary antibodies used were: rabbit/goat anti-5-HT [Immunostar (20080/20079), 1: 5,000]; rabbit anti-GFAP [DAKO (Z0334), 1:600]; rat anti-GFAP [Thermo Fisher (13-0300), 1:600]; rabbit anti-P2Y12 [AnaSpec (AS-55043A), 1:200]; rat anti-CD68 [Bio-Rad (MCA1957), 1:600]; rabbit anti-Fibronectin [Millipore (AB2033), 1:200]; rabbit anti- Collagen I [Abcam (ab21286), 1:200]; chicken anti-GFP [Abcam (ab13970), 1:400]; goat anti-SPP1 [R&D (AF808), 1:400]; mouse anti-Ly6G/Ly6C [R&D (MAB1037), 1:200]; mouse anti-CSPG [Sigma-Aldrich (C8035), 1:200]; rabbit anti-CSPG [Sigma-Aldrich (L9393), 1:500]; rabbit anti-RFP [Abcam (ab34771), 1:400]. Secondary antibodies included: Alexa Fluor 488-conjugated donkey anti chicken/rabbit; Alexa Fluor 555-conjugated donkey anti goat/rabbit/mouse and Dylight 650-conjugated donkey anti rat (all from Invitrogen). Spinal cord transverse and sagittal sections were imaged with a confocal laser-scanning microscope (Zeiss 700 or Zeiss 710). Figures showing large longitudinal spinal cord section were acquired using Zeiss 710 with image stitching and/or stack software.
The lesion site was defined and traced using Collagen I, Fibronectin, GFAP, P2Y12, CD68, CD31, CSPG, Laminin or Ly6G/Ly6C staining. Mice were perfused separately at 3, 7 or 14 days after spinal cord crush as described above to visualize lesion site. Cell nuclei were stained by incubation with DAPI for 30 seconds. Immunostaining intensity in the lesion site (100 µm width region in the epicenter) was measured using ImageJ software and normalized to the intact (proximal) region of the spinal cord.
To quantify the regenerating/late-arriving 5-HT/CST axons after spinal cord crush, sagittal sections through the lesion were stained with antibodies against 5-HT or RFP. Images of 5-6 sections for each animal were taken under a 10X objective and used for quantification. A series of rectangular segments 100 µm wide and 400 µm high covering the dorsal-ventral aspect of the cord were superimposed onto the sagittal sections, starting from lesion center up to a defined distance caudal. After subtracting the background, the pixel value of each segment was normalized by dividing with the rostral segment (1 mm rostral). The results were presented as a ratio at different distances (axons density index).
To deplete microglia in vivo, adult mice were given the CSF1R inhibitor PLX3397 mixed into AIN-76A standard chow (Research Diets). […]

Turning to `FC(F)(F)c1ccc(CNc2ccc(Cc3c[nH]c4ncc(Cl)cc34)cn2)cn1` [PLX3397], the “microglia depletion in neonatal spinal cord” value with microglia is given as “most microglia were depleted”. Further, the “bridge formation (fibronectin, CD68 staining)” value in experiment [1] (P2 crush, 3 dpi) is “defects of bridge formation”. The “wound healing and axon regeneration after neonatal crush (5-HT, GFAP staining)” value in experiment [1] (P2 crush, 7 dpi) was “impairs wound healing and axon regeneration”. Further, in experiment [1] (P2 crush, 14 dpi), the “GFAP+ reactive astrocytes in the lesion” value was “strong GFAP+ reactive astrocytes accumulating in the epicenter”; the “accumulation of basal lamina components (CSPG, laminin)” value is given as “limited accumulations”; the “axon growth at the lesion (5-HT)” value is “majority of axons stalled at the lesion epicenter”; the “blood vessels in the lesion (CD31)” value is “blood vessels were absent”. Also, the “bridge formation between the two severed stumps” value in experiment [1] (P2 injury model, 3 or 7 dpi) was “impaired bridge formation”.
